Test system: AMPA receptor
Test: Cortical slice studies: responses to AMPA in rat cortical slice
Type: cell-based
Conditions: from righthand shift in AMPA concentration-response curves, read-out: apparent equilibrium constant (Kb) in response to AMPA
Method: The compounds useful in this invention potently and selectively block responses to NMDA and/or AMPA in a brain slice from rat cortex, and inhibit the binding of agonists and antagonists to the strychnine-insensitive site present on the NMDA receptor and/or AMPA binding to rat forebrain membranes.
The effects of compounds of the invention on responses to NMDA and AMPA were assessed using the rat cortical slice as described by Wong et al., Proc. Natl. Acad. Sci. USA, 1986, 83, 7104. The apparent equilibrium constant (Kb) was calculated from the righthand shift in the NMDA or AMPA concentration-response curves produced by the compound under test.

O=c1[nH]c2cc([N+](=O)[O-])ccc2c(O)c1-c1ccccc1 [Example 12, 4-Hydroxy-7-nitro-3-phenyl-2(1H)-quinolone]
Kb: < 150 µM
